Laboratory results published in US10118938B2, “Arsenoplatin anti-cancer agents” (priority 2012, dated 2018).

What was measured:
[1] = test system: A2780^CP ovarian cancer cell line (cisplatin resistant); type: cell-based, human; settings: for IC50: ovarian cisplatin resistant, MTS after 72 hours, ±SD
Experimental: (§1) The MDA-MB-231-mCherry breast cancer cells were cultured in Dulbecco's modified Eagle's medium (DMEM) and supplemented with 5% heat-inactivated fetal bovine serum (FBS), 50 units/ml penicillin, 50 μg/ml streptomycin, 2 mM L-glutamine, and 1 μg/ml blasticidin S (Sigma). The A2780 and A2780^CP ovarian cancer cell lines and the multiple myeloma RPMI 8226 cell line were cultured in RPMI 1640 medium supplemented with 10% FBS, 50 units/ml penicillin, 50 μg/ml streptomycin, 2 mM L-glutamine. The U-87 and HTC-116 cancer cell lines were cultured without antibiotics. Cells were grown at 37° C. in a humidified atmosphere of 5% of CO2.
(§2) B. In Vitro Cytotoxicity Assay for MDA-MB-231mCherry, A270 and A2780CP Cancer Cell Lines.
(§3) The cytotoxicities of compound (1), cisplatin, and As2O3 were assessed by MTS assay using the CellTiter 96 Aqueous MTS (Promega). The 100 μL aliquots of cell suspension (1.0×10^5 cells/ml) were plated in 96-well tissue culture plates in the incubator overnight at 37° C. in a humidified atmosphere of 5% of CO2. The serial dilutions of compound (1), cisplatin, and As2O3 in appropriate media were transferred to the cells. The MTS solution (20 μL) was added after 72 hours and the absorbance was measured at 495 nm 4 hours later. Sigmoidal dose response curves were plotted using the GraphPad Prism software. The IC50 values were obtained on at least three independent experiments. In vitro cytotoxicity assay for U-87 and HTC-116 cancer cell line. For the experiment, cells were cultured in RPMI 1640 medium with 5% FBS and 2 mM L-glutamine. […] HCT-116 and U-87 cancer cell were plated in 96 well plates. The cells were plated in four replicates. The densities of the cells were 5000 and 10000 per well in 90 μL for HTC-116 and U-87, respectively. […] The cells were treated with 100, 10, 1, 0.1 0.01, 0.001, 0.0001, 0.00001 and 0.000001 μM of compound (1), cisplatin, and As2O3. After 48 hours post drug treatment all plates were allowed to equilibrate for 30 minutes at room temperature from incubator. Addition of 100 μL of Cell Titer Glow (Promega, Fitchburg, Wis.) reagent was added to the wells. The plates were shaken for 2 minutes and allowed to sit for activation prior to reading for 10 minutes. Plates were read on Biotek Synergy H1 (Biotek, Wenooski, Vt.) reader capable of luminescence detection.

[2] = test system: MDA-MB-231-mCherry breast cancer cells; type: cell-based, human; settings: triple negative breast cancer; MTS after 72 hours; ±SD
Experimental: as §1, §2, §3

[3] = test system: A2780 ovarian cancer cell line (cisplatin sensitive); experiment: In vitro cytotoxicity assay (MTS), A2780; type: cell-based, human; settings: MTS after 72 hours, ±SD
Experimental: as §1, §2
as §3, with “After 48 hours post drug treatment all plates were allowed to equilibrate for 30 minutes at room temperature from incubator. Addition of 100 μL of Cell Titer Glow (Promega, Fitchburg, Wis.) reagent was added to the wells.” left out

glioblastoma U-87 cells = type: cell-based, human; settings: Cell Titer Glow, 48 hours post drug treatment, ±SD
Experimental: as §1, §3

colon HCT-116 cells = type: cell-based, human; settings: Cell Titer Glow, 48 hours post drug treatment, ±SD, read-out: IC50 values in μM (±SD), HTC−116
Experimental: as §1, §3

[4] = test system: multiple myeloma RPMI 8226 cell line; type: cell-based, human; settings: ±SD
Experimental: as §1, §3

[5] = Linkage isomerization in [D6]DMSO solution by NMR; type: physicochemical; settings: compound (5) dissolved in [D6]DMSO, room temperature; S-isomer = compound (5), N-isomer = compound (6)
Text: Solution NMR and X-ray crystallography confirm that the Pt—As bond remained intact. Crystals suitable for a single crystal X-ray analysis were obtained when compound (5) was synthesized in a 1:1 water/methanol mixture, where the SCN^− ion is bound to Pt(II) through the sulfur atom (FIG. 1D). […] Assignments of chemical shifts for the S- and N-bound isomers signals are based on multidimensional ^195Pt and ^15N NMR spectroscopy on sample of compound (5) which is synthesized using thiocyanate enriched in ^13C and ^15N at 99% (FIG. 2).
Cisplatin, K2[PtCl4], DMSO, methanol, acetonitrile, propionitrile and As2O3 were purchased from Sigma-Aldrich and used without further purification. Media for the cell cultures and all other cell supplements were purchased from Invitrogen. The following spectrometers were used: NMR: Bruker Avance-III 600 and 500 MHz; chemical shifts (^1H, ^13C) were referenced to tetramethylsilane at 0.000 ppm ^1H and ^13C if it was present, and to residual solvent signal for samples in which TMS was absent (for [D6]DMSO, δH=2.50 ppm and δC=39.5 ppm). […] UV/Vis electron absorbance measurements were performed on a Perkin Elmer Lambda 650 spectrophotometer. […]

[6] = Solubility of the isolated complex; type: physicochemical
Experimental: Cisplatin (300 mg, 1.00 mmol) or K2[PtCl4] (415 mg, 1.00 mmol) was added to 125 cm^3 of 9:1 CH3CN/H2O (v/v). The mixture was stirred at 90° C. Once the platinum compound was dissolved, 396 mg As2O3(2.00 mmol) was added to the solution, and the reaction mixture was stirred at 90° C. for 72 hours. The resulting mixture was filtered, and the filtrate was left at room temperature in a glass beaker for approximately 4 weeks until crystals formed. Crystals suitable for a single crystal X-ray analysis were retrieved from solution. The solution was filtered, washed with CH3CN:H2O (9:1 mixture), and the obtained crystals were dried in a dessicator. Yield 350 mg product (75%; 23% when cisplatin is used). […] Elemental analysis (% calcd., found for C7H18.5AsClN3.5O6Pt): C (15.20, 15.24), H (3.37, 3.36), N (8.86, 8.69). NMR: ^1H NMR (600 MHz, [D6]DMSO, 25° C.) δ: 8.91 (s, 2H—OH), 8.15 (s, 2H—NH), 2.13 (s, 6H—CH3). ^13C NMR (150 MHz, [D6]DMSO, 25° C.): δ 172.1 (C-1, C-3), 171.4 (C-5, C-7), 22.5 (C-6, C-8), 16.6 (C-2, C-4). ^15N NMR (60 MHz, from the ^1H-^15N HSQC, [D6]DMSO, referenced to ^15NH4Cl, 25° C.): δ 106.4 (N-1, N-2), ^195Pt NMR (129 MHz, [D6]DMSO, 25° C.), δ: −3589 (s, 1Pt) ppm. UV/Vis ((methanol-water=1:1): λ1=283 nm (ε=4062 dm^3 mol^−1 cm^−1), λ2=247 nm (ε=3621 dm^3 mol^−1 cm^−1), sh. 260 nm.
LC/ESI-MS data were recorded every 24 hours. The color gradually turned yellow and ultimately colorless over the 4 day period. The resulting mixture was filtered and left to sit (pH roughly 2) at 25° C., and, within a week, crystals suitable for single crystal X-ray analysis appeared. The solution was filtered again, washed with H2O, dried, and weighed (212 mg 44%).
Compound (1) obtained in Example 2 (100 mg 0.18 mmol) was dissolved in 4 cm^3 of methanol and added to an equal-molar solution of KSCN (17.6 mg 0.180 mmol) in 4 cm^3 of water. The reaction mixture was allowed to stir at 50° C. for 5 hours. The mixture was filtered and the solution was left standing at room temperature until crystals appeared. The obtained crystals were removed by filtration. Yield: 60.00 mg (52%). Elemental analysis (% calcd., found for PtC5H10N3O4SAs): C (12.56, 12.37), H (2.11, 1.97), N (8.78, 8.56). NMR data: ^1H NMR (600 MHz, [D6]DMSO): δ 2.21 (s, 6H, CH3), 7.70 (s, 2H, NH), 9.20 (s, 2H, OH). ^13C NMR (150 MHz, [D6]DMSO) δ 17.5 (CH3), 117.7 (SCN), 172.6 (CO); ^195Pt NMR (129 MHz, [D6]DMSO) δ −3861 ppm (s, 1Pt); UV/Vis (methanol-water=1:1): λ1=285 nm (ε=4217 dm^3 mol^−1 cm^−1); λ2=225 nm (ε=15919 dm^3 mol^−1 cm^−1), shoulder at 265 nm.

[7] = test system: panel of human cancer cell lines; experiment: Anticancer activity in a panel of human cancer cell lines; type: cell-based
Experimental: as §1
The cytotoxicities of compound (1), cisplatin, and As2O3 were assessed by MTS assay using the CellTiter 96 Aqueous MTS (Promega). The 100 μL aliquots of cell suspension (1.0×10^5 cells/ml) were plated in 96-well tissue culture plates in the incubator overnight at 37° C. in a humidified atmosphere of 5% of CO2. The serial dilutions of compound (1), cisplatin, and As2O3 in appropriate media were transferred to the cells. The MTS solution (20 μL) was added after 72 hours and the absorbance was measured at 495 nm 4 hours later. […] The plates were shaken for 2 minutes and allowed to sit for activation prior to reading for 10 minutes. Plates were read on Biotek Synergy H1 (Biotek, Wenooski, Vt.) reader capable of luminescence detection.

| Compound | IC50 [1] [µM] | IC50 [2] [µM] | IC50 [3] [µM] | IC50 (glioblastoma U-87 cells) [µM] | IC50 (colon HCT-116 cells) [µM] | IC50 [4] [µM] | share of isomer in equilibrium mixture [5] [%] | solubility in organic solvents [6] | anticancer activity in a panel of human cancer cell lines [7] | resistance factor (RF) ([1]; ovarian A2780 and A2780^CP cell lines, RF value of <2 denotes no cross-resistance) | solubility in water [6] |
| --- | --- | --- | --- | --- | --- | --- | --- | --- | --- | --- | --- |
| N.N.[Cl][Pt][Cl] [Cisplatin, Cis-diamminedichloroplatinum(II)] | 47.3 ± 2.1 | 22.3 ± 2.8 | 3.1 ± 1.1 | 9.6 ± 0.8 | 5.5 ± 1.3 | 1.9 ± 0.1 |  |  |  |  |  |
| [Pt(μ-NHC(CH3)O)2(NCS)As(OH)2] [Compound (6)] |  |  |  |  |  |  | 36 |  |  |  |  |
| [Pt(μ-NHC(CH3)O)2(SCN)As(OH)2] [Compound (5)] |  |  |  |  |  |  | 64±1.2 | DMSO and methanol |  |  |  |
| [Pt(μ-NHC(CH3)O)2ClAs(OH)2] [Compound (1)] | 21.4 ± 1.8 | 9.5 ± 0.1 | 20.3 ± 4 | 0.37 ± 0.11 | 1.6 ± 0.4 | 4.5 ± 1 |  | soluble in DMSO, methanol, ethanol | significant anticancer activity | 1.1 | partially in water |
| [Pt(μ-NHC(CH3CH2)O)2ClAs(OH)2] [Compound (2)] |  |  |  |  |  |  |  | soluble in methanol, DMSO | significant anticancer activity |  | partially soluble in H2O |
| arsenic trioxide [As2O3] | 21.6 ± 1.4 | 11.9 ± 2.3 | 17.1 ± 1.5 | 1.6 ± 2.9 | 9.4 ± 0.9 | 7.1 ± 0.2 |  |  |  |  |  |
